The text below walks through data of patent US9000162B2, “5,8-difluoro-4-(2-(4-(heteroaryloxy)-phenyl)ethylamino)quinazolines and their use as agrochemicals” (Dow AgroSciences LLC, priority 2008, dated 2015).

What all share (type): in vivo
In test [1] the test system is Pseudoperonospora cubensis (PSPECU). In words: Cucumber downy mildew foliar protectant test. To be noted: 200 ppm foliar, inoculated one day after treatment, read-out: Activity against fungal diseases PSPECU. In outline:
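Cucumber seedlings, first true leaf 20-80% expanded, were sprayed to wetness with formulated compound and inoculated next day with aqueous sporangia suspension. Severity was converted to percent control versus untreated inoculated plants: ***=80-100%, **=50-79%, *=0-49%.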

The test system of test [2] is Magnaporthe grisea = Pyricularia oryzae (PYRIOR). In words: whole plant or invertebrate. To be noted: foliar, read-out: Activity against fungal diseases PYRIOR.
The test system of test [3] is Puccinia recondita tritici (PUCCRT). In words: Leaf rust of wheat foliar protectant test. As to conditions: 200 ppm foliar, inoculated one day after treatment, read-out: Activity against fungal diseases PUCCRT. A digest of the protocol:
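Wheat seedlings (3–8 per pot) were sprayed to wet with formulated compound and inoculated the next day with an aqueous Puccinia recondita tritici spore suspension. Severity was converted to % control versus untreated inoculated plants and rated *** 80–100%, ** 50–79%, * 0–49%.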

The test system of test [4] is Septoria tritici (SEPTTR). In words: Septoria blotch of wheat foliar protectant test. As to conditions: Zymoseptoria tritici, read-out: Activity against fungal diseases SEPTTR; for pest or weed control at 200 ppm: 200 ppm foliar, inoculated one day after treatment; for pest or weed control at 25 ppm: foliar, Tested at 25 ppm (footnote b). A digest of the protocol: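 Wheat seedlings (3-10 per pot) were sprayed to wet with formulated compound and inoculated next day with Septoria tritici spores. Plants then had 1 day in a dark dew chamber and 3 days in a lighted one before greenhouse incubation. Severity versus untreated inoculated plants gave percent control, scored *** 80-100%, ** 50-79%, * 0-49%.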

In test [5] the test system is Colorado Potato Beetle (Leptinotarsa decemlineata, LPTNDE). In words: Colorado Potato Beetle larvae on sprayed tomato leaves. To be noted: foliar, 72 h, L2 larvae on sprayed tomato foliage, mortality after three days. How it is done:
Formulated test compounds were diluted and sprayed onto leaves of tomato plants. When dry, plant foliage was removed from the plant and placed in 8-well agar trays. Five L2 Colorado potato beetle larvae were placed in each well, and the trays were sealed and incubated at 26° C. Mortality was evaluated after three days.

Values after ≈ are worked out from the molar mass of the structure shown.

For `Fc1cc(F)c2ncnc(NCCc3ccc(Oc4ccc(C(F)(F)F)cn4)cc3)c2c1F` [Compound 74], the pest or weed control at 200 ppm in test [1], in test [2], in test [3] and in test [4] was 80 to 100% in each case. For the same compound, the LC90 in test [5] was determined as 1 µg/mL (≈ 2.15 µM).

On to `N#Cc1ccc(Oc2ccc(CCNc3ncnc4c(F)ccc(F)c34)cc2)nc1` [Compound 124], for which the pest or weed control at 200 ppm in test [1], in test [2] and in test [3] was 80 to 100% throughout. The pest or weed control at 25 ppm in test [4] lay in the range of 50 to 79%. This compound also displayed an LC90 in test [5] of 3.1 to 12.5 µg/mL (≈ 7.68 to 31 µM).

Compound `Fc1cccc2c(NCCc3ccc(Oc4ccc(C(F)(F)F)cn4)cc3)ncnc12` [reference compound] came in with an LC90 in test [5] of 0.12 µg/mL (≈ 0.28 µM).

In test [5], `Fc1cccc2c(NCCc3ccc(Oc4cc(C(F)(F)F)ccn4)cc3)ncnc12` [drawing 199, reference compound] displayed an LC90 of 3.1 to 12.5 µg/mL (≈ 7.24 to 29.2 µM).

Take `CC(F)(F)c1ccnc(Oc2ccc(CCNc3ncnc4c(F)ccc(F)c34)cc2)c1` [Compound 12]: the pest or weed control at 200 ppm in test [1], in test [2], in test [3] and in test [4] was 80 to 100% in each case.

In the case of `Oc1ccc(CCNc2ncnc3c(F)ccc(F)c23)cc1F` [Compound 47], the pest or weed control at 200 ppm in test [1] was 0 to 49%; in test [2], 50 to 79%; in test [3], 0 to 49%; in test [4] it was 0 to 49%.

In test [5], `N#Cc1ccc(Oc2ccc(CCNc3ncnc4c(F)cccc34)cc2)nc1` [reference compound] registered an LC90 of under 3.1 µg/mL.

Regarding `Oc1ccc(CCNc2ncnc3c(F)ccc(F)c23)cc1Cl` [Compound 87], the pest or weed control at 200 ppm lay within 50 to 79% in test [1], 0 to 49% in test [2], 0 to 49% in test [3] and 0 to 49% in test [4].

Turning to `Cc1cc(O)ccc1CCNc1ncnc2c(F)ccc(F)c12` [Compound 51], the pest or weed control at 200 ppm in test [1] is 0 to 49%; in test [2] it was 50 to 79%; in test [3], 0 to 49%; in test [4] it was 0 to 49%.

Regarding `COc1cc(CCNc2ncnc3c(F)ccc(F)c23)ccc1Oc1ccc(C(F)(F)F)cn1` [Compound 52], the pest or weed control at 200 ppm in test [1], in test [2], in test [3] and in test [4] was 80 to 100% each time.

Consider `COc1cc(CCNc2ncnc3c(F)ccc(F)c23)ccc1Oc1cc(C(F)(F)F)cc(C)n1` [Compound 44], for which the pest or weed control at 200 ppm in test [1] was in the range of 80 to 100%; in test [2], 0 to 49%; in test [3], 80 to 100%; in test [4], 80 to 100%.

As for `Cc1cc(CCNc2ncnc3c(F)ccc(F)c23)ccc1Oc1cc(C(F)(F)F)cc[n+]1[O-]` [Compound 61], the pest or weed control at 200 ppm fell in the range of 80 to 100% in test [1], 50 to 79% in test [2], 80 to 100% in test [3] and 80 to 100% in test [4].

For the compound `COc1cc(CCNc2ncnc3c(F)ccc(F)c23)ccc1Oc1ccnc(Cl)c1` [Compound 108], the pest or weed control at 200 ppm in test [1] fell in the range of 0 to 49%; in test [2], 0 to 49%; in test [3] it was 80 to 100%; in test [4] it was 80 to 100%.

Regarding `COc1cc(CCNc2ncnc3c(F)ccc(F)c23)ccc1Oc1c(Cl)cnc(C(F)(F)F)c1Cl` [Compound 69], the pest or weed control at 200 ppm in test [1], in test [2], in test [3] and in test [4] was 80 to 100% throughout.

As to `COc1cc(CCNc2ncnc3c(F)ccc(F)c23)ccc1Oc1ccnc(C(F)(F)F)c1Cl` [Compound 78], the pest or weed control at 200 ppm in test [1], in test [2], in test [3] and in test [4] was 80 to 100% in each case.

Consider `COc1cc(CCNc2ncnc3c(F)ccc(F)c23)ccc1Oc1cc(C(C)(F)F)ccn1` [Compound 16], for which the pest or weed control at 200 ppm in test [1], in test [2], in test [3] and in test [4] was 80 to 100% in each case.

On to `COc1cc(CCNc2ncnc3c(F)ccc(F)c23)ccc1Oc1nc(C(F)(F)F)nc(F)c1F` [Compound 101], for which the pest or weed control at 200 ppm in test [1] is 80 to 100%; in test [2], 0 to 49%; in test [3], 50 to 79%; in test [4], 0 to 49%.

For the compound `CC(Nc1ncnc2c(F)ccc(F)c12)c1ccccc1` (stereo not drawn) [Compound 119], the pest or weed control at 200 ppm in test [1], in test [2], in test [3] and in test [4] was 80 to 100% in each case.

With `Fc1ccc(F)c2c(NC3Cc4ccc(Oc5ccc(C(F)(F)F)cn5)cc4C3)ncnc12` (stereo not drawn) [Compound 111], the pest or weed control at 200 ppm in test [1], in test [2], in test [3] and in test [4] was 80 to 100% each time.

As to `Fc1ccc(F)c2c(NCCOc3ccc(Oc4cc(C(F)(F)F)ccn4)cc3)ncnc12` [Compound 8], the pest or weed control at 200 ppm was in the range of 80 to 100% in test [1], 80 to 100% in test [2], 80 to 100% in test [3] and 50 to 79% in test [4].

For the compound `Fc1cc(CCNc2ncnc3c(F)ccc(F)c23)ccc1Oc1ncc(C(F)(F)F)cc1F` [Compound 131], the pest or weed control at 200 ppm in test [1], in test [2], in test [3] and in test [4] was 80 to 100% throughout.

On to `Fc1ccc(F)c2c(NCCc3ccc(Oc4cc(C(F)(F)F)ccn4)c(Br)c3)ncnc12` [Compound 39], for which the pest or weed control at 200 ppm in test [1], in test [2] and in test [3] was 80 to 100% in each case. Also, the pest or weed control at 25 ppm in test [4] was in the range of 80 to 100%.

Regarding `Fc1cc(C(F)(F)F)cnc1Oc1ccc(CCNc2ncnc3c(F)ccc(F)c23)cc1` [Compound 5], the pest or weed control at 200 ppm in test [1], in test [2] and in test [3] was 80 to 100% throughout. Also, the pest or weed control at 25 ppm in test [4] was in the range of 80 to 100%.

With `Cc1cc(Oc2cc(C(F)(F)F)ccn2)ccc1CCNc1ncnc2c(F)ccc(F)c12` [Compound 55], the pest or weed control at 200 ppm in test [1], in test [2], in test [3] and in test [4] was 80 to 100% each time.

As to `Fc1cc(CCNc2ncnc3c(F)ccc(F)c23)ccc1Oc1ccc(C(F)(F)F)cn1` [Compound 130], the pest or weed control at 200 ppm in test [1], in test [2], in test [3] and in test [4] was 80 to 100% in each case.

Regarding `Fc1ccc(F)c2c(NCCc3ccc(Oc4cnccc4C(F)(F)F)cc3)ncnc12` [Compound 43], the pest or weed control at 200 ppm in test [1] fell in the range of 80 to 100%; in test [2], 50 to 79%; in test [3] it was 80 to 100%; in test [4], 80 to 100%.

With `Fc1cc(CCNc2ncnc3c(F)ccc(F)c23)ccc1Oc1cc(C(F)(F)F)ncn1` [Compound 132], the pest or weed control at 200 ppm in test [1], in test [2], in test [3] and in test [4] was 80 to 100% in each case.

For `Fc1ccc(F)c2c(NCCc3ccc(Oc4ccnc(C(F)(F)F)c4Cl)cc3)ncnc12` [Compound 96], the pest or weed control at 200 ppm in test [1], in test [2], in test [3] and in test [4] was 80 to 100% each time.

Turning to `Fc1ccc(F)c2c(NC3Cc4ccc(Oc5cc(C(F)(F)F)ccn5)cc4C3)ncnc12` (stereo not drawn) [Compound 110], the pest or weed control at 200 ppm in test [1], in test [2], in test [3] and in test [4] was 80 to 100% each time.

Take `Cc1cc(CCNc2ncnc3c(F)cc(F)c(F)c23)ccc1O` [Compound 70]: the pest or weed control at 200 ppm in test [1] lay within 0 to 49%; in test [2], 50 to 79%; in test [3], 50 to 79%; in test [4], 50 to 79%.

On to `COc1cc(C(F)(F)F)cc(Oc2ccc(CCNc3ncnc4c(F)ccc(F)c34)cc2C)n1` [Compound 29], for which the pest or weed control at 200 ppm was in the range of 80 to 100% in test [1], 50 to 79% in test [2], 80 to 100% in test [3] and 80 to 100% in test [4].
